Patent publication US20230114728A1 (Venatorx Pharmaceuticals, Inc., priority 2019, published 2023)

What was measured:
[1] = biological target: A. baumannii PBP1a (Acinetobacter baumannii, UniProt A0ABX6CK30); assay: Bocillin-FL fluorescence polarization competition binding assay, A. baumannii PBP1a; conditions: fluorescence polarization competition binding assay using Bocillin-FL; column 1; read-out: A. baumannii PBP1a Potency
[2] = biological target: T1, A. baumannii PBP2 (Acinetobacter baumannii, UniProt D0C8Z9); assay: Bocillin-FL fluorescence polarization competition binding assay, A. baumannii PBP2; conditions: fluorescence polarization competition binding assay using Bocillin-FL; read-out: A. baumannii PBP2 Potency
T1 construct: made in house
T1 sequence (D0C8Z9 1-672): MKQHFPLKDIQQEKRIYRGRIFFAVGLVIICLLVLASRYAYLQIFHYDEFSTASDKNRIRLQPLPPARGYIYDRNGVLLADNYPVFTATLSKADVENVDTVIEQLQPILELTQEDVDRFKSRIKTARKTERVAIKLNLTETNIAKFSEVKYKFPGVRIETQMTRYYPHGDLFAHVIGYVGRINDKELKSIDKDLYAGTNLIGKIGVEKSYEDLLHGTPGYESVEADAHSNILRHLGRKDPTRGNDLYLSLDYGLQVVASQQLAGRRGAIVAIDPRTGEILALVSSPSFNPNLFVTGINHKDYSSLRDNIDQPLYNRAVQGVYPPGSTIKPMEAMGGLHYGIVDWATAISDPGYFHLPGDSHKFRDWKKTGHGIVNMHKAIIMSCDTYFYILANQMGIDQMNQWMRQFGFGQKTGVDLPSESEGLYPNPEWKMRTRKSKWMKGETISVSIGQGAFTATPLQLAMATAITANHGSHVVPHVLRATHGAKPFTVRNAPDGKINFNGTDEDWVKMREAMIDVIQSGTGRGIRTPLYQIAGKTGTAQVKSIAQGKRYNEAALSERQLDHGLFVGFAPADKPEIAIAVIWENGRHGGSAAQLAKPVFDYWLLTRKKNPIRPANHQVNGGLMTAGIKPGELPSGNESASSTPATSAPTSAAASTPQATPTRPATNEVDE
Method in brief: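 Fluorescence polarization (ex 490/em 520 nm) competition of inhibitors against Bocillin-FL at 0.1 μM, read up to 60 min. Final PBP levels: E. coli PBP3 1.5 μM; A. baumannii PBP2 2.5 μM, PBP3 0.2 μM in Tris pH 8.0/NaCl/glycerol/Tween 20; N. gonorrhoeae PBP2 […] in Hepes pH 8.0/NaCl/glycerol. EC50 = concentration halving PBP-bound Bocillin-FL.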

A. baumannii PBP1a, sequence (A0ABX6CK30 entry or part of it): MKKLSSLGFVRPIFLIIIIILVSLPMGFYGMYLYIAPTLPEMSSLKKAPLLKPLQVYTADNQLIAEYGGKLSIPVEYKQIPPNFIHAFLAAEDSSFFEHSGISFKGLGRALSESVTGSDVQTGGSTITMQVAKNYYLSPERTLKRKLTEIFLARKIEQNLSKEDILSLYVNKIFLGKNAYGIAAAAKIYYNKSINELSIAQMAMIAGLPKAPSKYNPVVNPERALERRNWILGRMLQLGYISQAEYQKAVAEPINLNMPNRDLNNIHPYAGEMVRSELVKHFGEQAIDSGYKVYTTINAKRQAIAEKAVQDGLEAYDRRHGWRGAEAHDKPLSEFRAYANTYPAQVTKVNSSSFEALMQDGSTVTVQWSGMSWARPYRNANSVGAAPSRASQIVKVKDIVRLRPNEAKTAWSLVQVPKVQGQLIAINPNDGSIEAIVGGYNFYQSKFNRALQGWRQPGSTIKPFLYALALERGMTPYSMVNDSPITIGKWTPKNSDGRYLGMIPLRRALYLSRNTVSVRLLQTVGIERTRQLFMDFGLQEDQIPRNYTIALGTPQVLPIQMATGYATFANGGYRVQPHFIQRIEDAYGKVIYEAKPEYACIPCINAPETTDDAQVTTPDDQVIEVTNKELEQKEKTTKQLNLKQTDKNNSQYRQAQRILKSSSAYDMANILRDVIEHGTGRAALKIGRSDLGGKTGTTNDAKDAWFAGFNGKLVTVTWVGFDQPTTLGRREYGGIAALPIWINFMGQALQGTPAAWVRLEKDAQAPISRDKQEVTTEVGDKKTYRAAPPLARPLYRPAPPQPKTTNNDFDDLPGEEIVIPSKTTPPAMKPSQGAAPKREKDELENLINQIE

SMILES | EC50 [1] [µM] | EC50 [2] [µM]
O=C(NCCCN1CCN(C(=O)NC(C(=O)N[C@H]2Cc3cccc(C(=O)O)c3OB2O)c2ncc(O)cc2F)C(=O)C1=O)c1ccc(O)c(O)c1Cl (stereo partly drawn) [Example 1, (3R)-3-(2-(4-(3-(2-chloro-3,4-dihydroxybenzamido)propyl)-2,3-dioxopiperazine-1-carboxamido)-2-(3-fluoro-5-hydroxypyridin-2-yl)acetamido)-2-hydroxy-3,4-dihydro-2H-benzo[e][1,2]oxaborinine-8-carboxylic acid] | 10 to 30 | 
CS(=O)(=O)N1CCN(C(=O)N[C@@H](C(=O)N[C@H]2Cc3ccc(F)c(C(=O)O)c3OB2O)c2cc(F)c(O)c(O)c2Cl)C1=O (single isomer, unassigned) [Example 189] | > 100 | > 100
CCN1CCN(C(=O)N[C@@H](C(=O)N[C@H]2Cc3cc(Cl)c(F)c(C(=O)O)c3OB2O)c2c(F)cc(O)c(O)c2Cl)C(=O)C1=O [Example 191, (R)-6-chloro-3-((R)-2-(2-chloro-6-fluoro-3,4-dihydroxyphenyl)-2-(4-ethyl-2,3-dioxopiperazine-1-carboxamido)acetamido)-7-fluoro-2-hydroxy-3,4-dihydro-2H-benzo[e][1,2]oxaborinine-8-carboxylic acid] | > 100 | 30 to 100
O=C(NCCCN1CCN(C(=O)NC(C(=O)N[C@H]2Cc3ccc(F)c(C(=O)O)c3OB2O)c2ncc(O)cc2F)C(=O)C1=O)c1ccc(O)c(O)c1Cl (stereo partly drawn) [Example 3, (3R)-3-(2-(4-(3-(2-chloro-3,4-dihydroxybenzamido)propyl)-2,3-dioxopiperazine-1-carboxamido)-2-(3-fluoro-5-hydroxypyridin-2-yl)acetamido)-7-fluoro-2-hydroxy-3,4-dihydro-2H-benzo[e][1,2]oxaborinine-8-carboxylic acid] | 30 to 100 | > 100
CCN1CCN(C(=O)N[C@@H](C(=O)N[C@H]2Cc3cccc(C(=O)O)c3OB2O)c2c(O)cc(O)cc2F)C(=O)C1=O (single isomer, unassigned) [Example 182] | > 100 | > 100
NCCCN1CCN(C(=O)N[C@@H](C(=O)N[C@H]2Cc3cc(Cl)c(F)c(C(=O)O)c3OB2O)c2c(F)cc(O)c(O)c2Cl)C(=O)C1=O [Example 190, (R)-3-((R)-2-(4-(3-aminopropyl)-2,3-dioxopiperazine-1-carboxamido)-2-(2-chloro-6-fluoro-3,4-dihydroxyphenyl)acetamido)-6-chloro-7-fluoro-2-hydroxy-3,4-dihydro-2H-benzo[e][1,2]oxaborinine-8-carboxylic acid] | > 100 | > 100
O=C(NCCN1CCN(C(=O)NC(C(=O)N[C@H]2Cc3ccc(F)c(C(=O)O)c3OB2O)c2ncc(O)cc2F)C(=O)C1=O)c1c(F)cc(O)c(O)c1Cl (stereo partly drawn) [Example 5, (3R)-3-(2-(4-(2-(2-chloro-6-fluoro-3,4-dihydroxybenzamido)ethyl)-2,3-dioxopiperazine-1-carboxamido)-2-(3-fluoro-5-hydroxypyridin-2-yl)acetamido)-7-fluoro-2-hydroxy-3,4-dihydro-2H-benzo[e][1,2]oxaborinine-8-carboxylic acid] | 10 to 30 | 
C[C@H]1CN(CCNC(=O)c2ccc(O)c(O)c2Cl)C(=O)C(=O)N1C(=O)NC(C(=O)N[C@H]1Cc2cccc(C(=O)O)c2OB1O)c1ncc(O)cc1F (stereo partly drawn) [Example 2, (3R)-3-(2-((S)-4-(2-(2-chloro-3,4-dihydroxybenzamido)ethyl)-6-methyl-2,3-dioxopiperazine-1-carboxamido)-2-(3-fluoro-5-hydroxypyridin-2-yl)acetamido)-2-hydroxy-3,4-dihydro-2H-benzo[e][1,2]oxaborinine-8-carboxylic acid] | 10 to 30 | 
